Test results from article PMC9485985 (Journal of Innate Immunity, 2021).
Peptide text beside a SMILES is read from it.

Assays:
[1] = ref [11]; cited from earlier work
RAW264.7 cells = assay: Uptake of TAMRA-labeled TCPs, flow cytometry; format: cell-based, murine; conditions: Fig. 1d, inhibitor 30 min then 2 µM T-GKY25 1 h, n = 3-4
0.5% whole blood = conditions: ref [5], [7], [11], [12], [38]; cited from earlier work

For WFFFYYLIIGGGVVTHQQRKKKKDE [WFF25], the immunomodulatory effects [1] is listed as “did not show any immunomodulatory effects”.

In the case of `CN(C)c1cccc2c(S(=O)(=O)NCCCCCN)cccc12` [dansylcadaverine, Dansylcadaverine], the “effect of inhibitor on uptake of T-GKY25” value (RAW264.7 cells) is reported as “did not show any effect”.

For `CC[C@H](C)[C@H](NC(=O)[C@H](Cc1c[nH]c2ccccc12)NC(=O)[C@H](CCCCN)NC(=O)[C@H](CCCCN)NC(=O)[C@H](CC(C)C)NC(=O)[C@H](CCCNC(=N)N)NC(=O)[C@H](Cc1ccccc1)NC(=O)[C@@H](NC(=O)[C@@H](N)Cc1cnc[nH]1)C(C)C)C(=O)N[C@@H](CCC(N)=O)C(=O)N[C@@H](CCCCN)C(=O)N[C@H](C(=O)N[C@H](C(=O)N[C@@H](CC(=O)O)C(=O)N[C@@H](CCC(N)=O)C(=O)N[C@@H](Cc1ccccc1)C(=O)NCC(=O)N[C@@H](CCC(=O)O)C(=O)O)[C@@H](C)CC)C(C)C` [HVF18] (H-HVFRLKKWIQKVIDQFGE-OH), the “concentration from which hemolysis is induced” value (0.5% whole blood) is given as > 80 µM.
